Laboratory results as given in PubChem BioAssay AID1963847 (Molecular Pharmacology Branch, DTP, NCI, 2024).

System: 415267-285-R-J2-PDC complex spheroid viability
Experiment: Anticancer human tumor 415267-285-R-J2-PDC patient-derived breast carcinoma cell line growth inhibition [POLQ]
Settings: for IC50: curve of first compound; for viability, T/C: stronger effect = lower value
How it was run: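 Complex spheroid viability model combining PDC tumour cells with endothelial (HUVEC) and MSC stromal cells. Novobiocin, ART-558 or RP6685 were tested singly and in combination with standard and investigational anticancer drugs. Each was titrated in half-log steps from near clinical Cmax, or from 10 microM where Cmax was unknown.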

[1] = second compound 0.0316 µM, first compound 0.0316 µM
[2] = second compound 0.0316 µM, first compound 0.1 µM
[3] = second compound 0.1 µM, first compound 0.0316 µM
[4] = second compound 0.1 µM, first compound 0.1 µM
[5] = second compound 0.316 µM, first compound 0.0316 µM
[6] = second compound 0.316 µM, first compound 0.1 µM
[7] = second compound 1 µM, first compound 0.0316 µM
[8] = second compound 1 µM, first compound 0.1 µM
[9] = second compound 3.16 µM, first compound 0.0316 µM
[10] = second compound 3.16 µM, first compound 0.1 µM
[11] = second compound 10 µM, first compound 0.0316 µM
[12] = second compound 10 µM, first compound 0.1 µM
[13] = second compound 0.0316 µM, first compound 0.316 µM
[14] = second compound 0.0316 µM, first compound 1 µM
[15] = second compound 0.0316 µM, first compound 3.16 µM
[16] = second compound 0.0316 µM, first compound 10 µM
[17] = second compound 0.1 µM, first compound 0.316 µM
[18] = second compound 0.1 µM, first compound 1 µM
[19] = second compound 0.1 µM, first compound 3.16 µM
[20] = second compound 0.1 µM, first compound 10 µM
[21] = second compound 0.316 µM, first compound 0.316 µM
[22] = second compound 0.316 µM, first compound 1 µM
[23] = second compound 0.316 µM, first compound 3.16 µM
[24] = second compound 0.316 µM, first compound 10 µM
[25] = second compound 1 µM, first compound 0.316 µM
[26] = second compound 1 µM, first compound 1 µM
[27] = second compound 1 µM, first compound 3.16 µM
[28] = second compound 1 µM, first compound 10 µM
[29] = second compound 3.16 µM, first compound 0.316 µM
[30] = second compound 3.16 µM, first compound 1 µM
[31] = second compound 3.16 µM, first compound 3.16 µM
[32] = second compound 3.16 µM, first compound 10 µM
[33] = second compound 10 µM, first compound 0.316 µM
[34] = second compound 10 µM, first compound 1 µM
[35] = second compound 10 µM, first compound 3.16 µM
[36] = second compound 10 µM, first compound 10 µM
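Also: spheroids exposed to compounds for one week before readout.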
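For viability, T/C in this document: luminescence used as stand-in measure of viable cells; 100% = DMSO vehicle control viability.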

Cn1ncnc1[C@H]1c2n[nH]c(=O)c3cc(F)cc(c23)N[C@@H]1c1ccc(F)cc1 + Nc1ccc(C#CCN(C(=O)Cc2ncc(C(F)(F)F)cc2C(F)(F)F)c2ccc(F)cc2)nn1
IC50 (second compound 0.0316 µM): > 100 nM
IC50 (second compound 0.1 µM): > 100 nM
IC50 (second compound 0.316 µM): > 100 nM
IC50 (second compound 1 µM): > 100 nM
IC50 (second compound 3.16 µM): > 100 nM
IC50 (second compound 10 µM): > 100 nM
viability, T/C (second compound 0.0316 µM, first compound 0.000316 µM): 101%
viability, T/C (second compound 0.0316 µM, first compound 0.001 µM): 97.2%
viability, T/C (second compound 0.0316 µM, first compound 0.00316 µM): 101%
viability, T/C (second compound 0.0316 µM, first compound 0.01 µM): 93.7%
viability, T/C [1]: 95.8%
viability, T/C [2]: 97.8%
viability, T/C (second compound 0.1 µM, first compound 0.000316 µM): 96.7%
viability, T/C (second compound 0.1 µM, first compound 0.001 µM): 109%
viability, T/C (second compound 0.1 µM, first compound 0.00316 µM): 86.9%
viability, T/C (second compound 0.1 µM, first compound 0.01 µM): 92.6%
viability, T/C [3]: 99.8%
viability, T/C [4]: 94.8%
viability, T/C (second compound 0.316 µM, first compound 0.000316 µM): 88.7%
viability, T/C (second compound 0.316 µM, first compound 0.001 µM): 102%
viability, T/C (second compound 0.316 µM, first compound 0.00316 µM): 88.2%
viability, T/C (second compound 0.316 µM, first compound 0.01 µM): 99.6%
viability, T/C [5]: 95.5%
viability, T/C [6]: 110%
viability, T/C (second compound 1 µM, first compound 0.000316 µM): 98.9%
viability, T/C (second compound 1 µM, first compound 0.001 µM): 101%
viability, T/C (second compound 1 µM, first compound 0.00316 µM): 109%
viability, T/C (second compound 1 µM, first compound 0.01 µM): 99.5%
viability, T/C [7]: 105%
viability, T/C [8]: 120%
viability, T/C (second compound 3.16 µM, first compound 0.000316 µM): 97.8%
viability, T/C (second compound 3.16 µM, first compound 0.001 µM): 113%
viability, T/C (second compound 3.16 µM, first compound 0.00316 µM): 114%
viability, T/C (second compound 3.16 µM, first compound 0.01 µM): 91.6%
viability, T/C [9]: 101%
viability, T/C [10]: 108%
viability, T/C (second compound 10 µM, first compound 0.000316 µM): 89.8%
viability, T/C (second compound 10 µM, first compound 0.001 µM): 105%
viability, T/C (second compound 10 µM, first compound 0.00316 µM): 108%
viability, T/C (second compound 10 µM, first compound 0.01 µM): 94.2%
viability, T/C [11]: 101%
viability, T/C [12]: 105%

COc1cccc2c1C(=O)c1c(O)c3c(c(O)c1C2=O)CC(O)(C(=O)CO)CC3OC1CC(N)C(O)C(C)O1 (stereo unspecified) + COC1C(OC(N)=O)C(O)C(Oc2ccc3c(O)c(NC(=O)c4ccc(O)c(CC=C(C)C)c4)c(=O)oc3c2C)OC1(C)C
IC50 (second compound 0.0316 µM): 44.6 nM
IC50 (second compound 0.1 µM): 37.5 nM
IC50 (second compound 0.316 µM): 35.2 nM
IC50 (second compound 1 µM): < 31.6 nM
IC50 (second compound 3.16 µM): 39 nM
IC50 (second compound 10 µM): 44 nM
viability, T/C [1]: 66.1%
viability, T/C [2]: 12.3%
viability, T/C [13]: 5.33%
viability, T/C [14]: 1.27%
viability, T/C [15]: 0.99%
viability, T/C [16]: 3%
viability, T/C [3]: 55.7%
viability, T/C [4]: 17.9%
viability, T/C [17]: 5.82%
viability, T/C [18]: 0.96%
viability, T/C [19]: 1.01%
viability, T/C [20]: 2.7%
viability, T/C [5]: 54.2%
viability, T/C [6]: 12%
viability, T/C [21]: 4.95%
viability, T/C [22]: 0.99%
viability, T/C [23]: 0.89%
viability, T/C [24]: 2.53%
viability, T/C [7]: 48.8%
viability, T/C [8]: 11.6%
viability, T/C [25]: 5.43%
viability, T/C [26]: 1.06%
viability, T/C [27]: 1.03%
viability, T/C [28]: 2.68%
viability, T/C [9]: 58.4%
viability, T/C [10]: 12.5%
viability, T/C [29]: 4.68%
viability, T/C [30]: 1.06%
viability, T/C [31]: 1.25%
viability, T/C [32]: 2.55%
viability, T/C [11]: 63.9%
viability, T/C [12]: 16%
viability, T/C [33]: 5.78%
viability, T/C [34]: 1.44%
viability, T/C [35]: 1.38%
viability, T/C [36]: 3.32%

COc1ccc([C@@H](O)c2cc(-c3ncnc4cc(N5CCOCC5)ccc34)c(F)cc2Cl)nn1 + Nc1ccc(C#CCN(C(=O)Cc2ncc(C(F)(F)F)cc2C(F)(F)F)c2ccc(F)cc2)nn1
IC50 (second compound 0.0316 µM): > 10000 nM
IC50 (second compound 0.1 µM): > 10000 nM
IC50 (second compound 0.316 µM): > 10000 nM
IC50 (second compound 1 µM): > 10000 nM
IC50 (second compound 3.16 µM): > 10000 nM
IC50 (second compound 10 µM): > 10000 nM
viability, T/C [1]: 94.4%
viability, T/C [2]: 99.9%
viability, T/C [13]: 100%
viability, T/C [14]: 106%
viability, T/C [15]: 93%
viability, T/C [16]: 58.2%
viability, T/C [3]: 108%
viability, T/C [4]: 109%
viability, T/C [17]: 84.7%
viability, T/C [18]: 92.4%
viability, T/C [19]: 95.2%
viability, T/C [20]: 53.2%
viability, T/C [5]: 107%
viability, T/C [6]: 103%
viability, T/C [21]: 107%
viability, T/C [22]: 110%
viability, T/C [23]: 84.4%
viability, T/C [24]: 58%
viability, T/C [7]: 98.7%
viability, T/C [8]: 88%
viability, T/C [25]: 104%
viability, T/C [26]: 102%
viability, T/C [27]: 91.2%
viability, T/C [28]: 51.6%
viability, T/C [9]: 102%
viability, T/C [10]: 104%
viability, T/C [29]: 108%
viability, T/C [30]: 106%
viability, T/C [31]: 93.3%
viability, T/C [32]: 69.1%
viability, T/C [11]: 105%
viability, T/C [12]: 107%
viability, T/C [33]: 102%
viability, T/C [34]: 102%
viability, T/C [35]: 89.3%
viability, T/C [36]: 64.5%
